Measured values: US8574914B2, “Methods for mobile zinc measurement” (The General Hospital Corporation, priority 2009, dated 2013)

Assay: fluorescent zinc titration of ZPP1, fit to two-step binding model
Source text: Since ZPP1 contains two zinc-binding units, the following stepwise equilibria describe the binding events.
Two apparent binding constants, (K1app=1.52×10^11 M^−1, K2app=1.02×10^8 M^−1) were obtained by fitting the experimental data to the two-step model with high fidelity.

[1] = fluorescence titration, two-step model fit

apparent binding constant K1app (first step zinc binding) [1]: 1.52e+11 M⁻¹ | apparent binding constant K2app (second step zinc binding) [1]: 1.02e+08 M⁻¹ | zinc equivalents at which fluorescence intensity reaches its maximum (state B): ~2 equiv | fluorescence response on addition of up to 1 equiv of zinc (up to 1 equiv zinc (state A)): only a slight fluorescence increase
SMILES: O=C(O)c1ccccc1-c1c2cc(Cl)c(=O)c(CN(Cc3ccccn3)Cc3cnccn3)c-2oc2c(CN(Cc3ccccn3)Cc3cnccn3)c(O)c(Cl)cc12 [ZPP1]
